Drawing on patent US8394414B2, “Method for drug delivery to the pulmonary system” (MannKind Corporation, priority 1995, dated 2013), this text covers Tmax and AUC(0-t) for one compound.

Broadly, the Tmax is the time from dosing to the highest level. As a reminder, the AUC(0-t) is the area under the concentration-time curve up to a stated or last time point.

The data set can be described thus: in vivo. The following applies: sheep, sc. On the procedure:
Sheep (approximately 100 kg) were housed at SUNY Stony Brook Health Sciences Center. Animals were anesthetized with acepromazine/thiopental sodium. A suspense of diketopiperazine microparticle/sCT (10.04 mg/mL in 0.9% saline) was instilled in each lung of each sheep. A solution of sCT (10 mg/mL in 0.9% saline) was administered by subcutaneous injection to control animals. An intravenous catheter was placed in the cephalic vein of each anesthetized animal for blood sampling.
The following dosing solutions were prepared on the day of the experiment. The volume of the dose delivered was calculated based on the actual weight of the animal as described below.
Blood samples were drawn at the following time points: −5, 0 (predose), 1, 3, 5, 10, 15, 30, 45, 60, 90 minutes, 2, 4, and 6 hours. […]
Plasma sCT concentration was determined using radioimmunoassay (Research and Diagnostic Antibodies, Berkeley, Calif., catalog #K-1235).
The pharmacokinetics of sCT in sheep was determined after lung instillation of a formulation of sCT in diketopiperazine microparticle (2.47% by weight sCT) at a sCT dose of 100 μg/kg. […]
The truncated AUC (0 to 6 hours) was calculated for each animal using the trapezoidal rule. The bioavailability (F %) for each animal was calculated from the ration of the AUCs for the pulmonary and subcutaneous administrations.

As for `CC(C)C[C@H](NC(=O)[C@H](CCCCN)NC(=O)CNC(=O)[C@H](CC(C)C)NC(=O)[C@@H](NC(=O)[C@@H]1CSSC[C@H](N)C(=O)N[C@@H](CO)C(=O)N[C@@H](CC(N)=O)C(=O)N[C@@H](CC(C)C)C(=O)N[C@@H](CO)C(=O)N[C@@H]([C@@H](C)O)C(=O)N1)C(C)C)C(=O)N[C@@H](CO)C(=O)N[C@@H](CCC(N)=O)C(=O)N[C@@H](CCC(=O)O)C(=O)N[C@@H](CC(C)C)C(=O)N[C@@H](Cc1c[nH]cn1)C(=O)N[C@@H](CCCCN)C(=O)N[C@@H](CC(C)C)C(=O)N[C@@H](CCC(N)=O)C(=O)N[C@H](C(=O)N[C@@H](Cc1ccc(O)cc1)C(=O)N1CCC[C@H]1C(=O)N[C@@H](CCCNC(=N)N)C(=O)N[C@H](C(=O)N[C@@H](CC(N)=O)C(=O)N[C@H](C(=O)NCC(=O)N[C@@H](CO)C(=O)NCC(=O)N[C@H](C(=O)N1CCC[C@H]1C(N)=O)[C@@H](C)O)[C@@H](C)O)[C@@H](C)O)[C@@H](C)O` [sCT, salmon calcitonin], the Tmax was 2 h. For the same compound, under “100 ug/kg”, the area under the curve AUC(0-t) came out at 38.8 ng·h/mL.
